In general, IC50 refers to the concentration needed to halve the response being measured.

Structures can show the parent of a compound that is named as a salt.

In assay [1] the target is PI3Kγ (p110γ) Recombinant Human Protein (Homo sapiens (Human), UniProt P48736). The experiment in a line: PI3K-γ scintillation proximity assay. The following applies: scintillation proximity assay, recombinant human p110γ. It is filed as biochemical. (In general: In a scintillation proximity assay essentially only radioactivity close to the scintillant gives light.)
PI3Kγ (p110γ) Recombinant Human Protein, sequence (P48736 whole entry): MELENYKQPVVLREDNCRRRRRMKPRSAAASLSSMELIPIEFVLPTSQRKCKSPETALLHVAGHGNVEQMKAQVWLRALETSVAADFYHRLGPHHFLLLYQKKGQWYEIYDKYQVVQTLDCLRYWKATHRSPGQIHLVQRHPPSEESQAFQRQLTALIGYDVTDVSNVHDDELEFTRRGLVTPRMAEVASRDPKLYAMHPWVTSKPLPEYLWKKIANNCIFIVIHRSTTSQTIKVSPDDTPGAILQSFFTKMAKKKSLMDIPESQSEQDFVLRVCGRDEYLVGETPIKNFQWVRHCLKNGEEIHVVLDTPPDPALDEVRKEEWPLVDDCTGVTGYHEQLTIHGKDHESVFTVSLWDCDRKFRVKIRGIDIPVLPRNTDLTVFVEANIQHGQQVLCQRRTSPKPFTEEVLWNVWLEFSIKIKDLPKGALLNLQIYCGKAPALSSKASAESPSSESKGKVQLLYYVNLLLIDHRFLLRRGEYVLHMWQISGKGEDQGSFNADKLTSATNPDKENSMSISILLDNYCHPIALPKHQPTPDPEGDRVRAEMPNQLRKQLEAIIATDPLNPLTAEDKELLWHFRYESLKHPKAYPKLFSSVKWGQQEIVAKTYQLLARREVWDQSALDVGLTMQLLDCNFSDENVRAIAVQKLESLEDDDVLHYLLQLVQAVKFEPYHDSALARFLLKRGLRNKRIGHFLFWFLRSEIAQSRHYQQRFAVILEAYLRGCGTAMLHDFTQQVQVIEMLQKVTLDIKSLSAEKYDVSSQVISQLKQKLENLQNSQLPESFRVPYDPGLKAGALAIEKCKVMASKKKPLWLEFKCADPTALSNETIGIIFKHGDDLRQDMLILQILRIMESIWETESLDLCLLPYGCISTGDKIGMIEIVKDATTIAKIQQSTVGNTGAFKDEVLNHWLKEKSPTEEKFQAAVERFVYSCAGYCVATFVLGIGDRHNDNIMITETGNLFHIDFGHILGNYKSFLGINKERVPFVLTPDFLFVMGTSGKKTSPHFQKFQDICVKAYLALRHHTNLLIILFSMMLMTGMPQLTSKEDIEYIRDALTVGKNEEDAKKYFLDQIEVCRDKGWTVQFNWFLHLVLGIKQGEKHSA
For assay [2], the target named is PI3Kδ (p1106/p85a) Recombinant Human Protein (Homo sapiens (Human), UniProt O00329). The experiment in a line: PI3Kδ scintillation proximity assay. The following applies: scintillation proximity assay, recombinant human PI3Kδ. It is filed as biochemical.
PI3Kδ (p1106/p85a) Recombinant Human Protein, sequence (O00329 whole entry): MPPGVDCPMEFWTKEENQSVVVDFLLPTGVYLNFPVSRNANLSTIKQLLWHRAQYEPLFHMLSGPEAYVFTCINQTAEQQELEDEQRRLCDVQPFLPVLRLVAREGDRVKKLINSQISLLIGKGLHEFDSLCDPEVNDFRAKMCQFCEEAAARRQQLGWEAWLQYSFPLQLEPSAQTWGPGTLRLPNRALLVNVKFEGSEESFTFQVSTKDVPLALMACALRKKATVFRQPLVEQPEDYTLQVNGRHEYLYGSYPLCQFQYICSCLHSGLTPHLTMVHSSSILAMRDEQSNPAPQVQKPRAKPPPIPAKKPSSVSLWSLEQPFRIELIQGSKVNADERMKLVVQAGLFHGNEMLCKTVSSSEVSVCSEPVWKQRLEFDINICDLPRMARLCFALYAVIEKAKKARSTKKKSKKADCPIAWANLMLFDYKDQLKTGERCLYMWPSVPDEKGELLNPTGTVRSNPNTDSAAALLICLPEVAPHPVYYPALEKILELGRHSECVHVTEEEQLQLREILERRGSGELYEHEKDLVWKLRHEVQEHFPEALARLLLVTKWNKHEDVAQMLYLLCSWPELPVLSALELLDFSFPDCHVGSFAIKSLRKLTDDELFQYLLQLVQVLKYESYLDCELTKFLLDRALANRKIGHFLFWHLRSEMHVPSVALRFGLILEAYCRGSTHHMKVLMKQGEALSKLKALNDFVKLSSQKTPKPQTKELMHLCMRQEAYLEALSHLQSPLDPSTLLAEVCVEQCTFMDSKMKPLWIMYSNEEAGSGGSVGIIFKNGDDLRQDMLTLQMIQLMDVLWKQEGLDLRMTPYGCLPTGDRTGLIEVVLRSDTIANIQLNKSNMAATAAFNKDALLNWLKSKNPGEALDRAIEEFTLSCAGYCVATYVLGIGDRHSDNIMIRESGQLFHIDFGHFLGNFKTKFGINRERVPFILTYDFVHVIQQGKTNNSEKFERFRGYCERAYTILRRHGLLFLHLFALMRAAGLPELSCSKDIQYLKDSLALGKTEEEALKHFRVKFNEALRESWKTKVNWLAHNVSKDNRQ
PI3Kδ (p1106/p85a) Recombinant Human Protein, sequence (P27986 whole entry partner): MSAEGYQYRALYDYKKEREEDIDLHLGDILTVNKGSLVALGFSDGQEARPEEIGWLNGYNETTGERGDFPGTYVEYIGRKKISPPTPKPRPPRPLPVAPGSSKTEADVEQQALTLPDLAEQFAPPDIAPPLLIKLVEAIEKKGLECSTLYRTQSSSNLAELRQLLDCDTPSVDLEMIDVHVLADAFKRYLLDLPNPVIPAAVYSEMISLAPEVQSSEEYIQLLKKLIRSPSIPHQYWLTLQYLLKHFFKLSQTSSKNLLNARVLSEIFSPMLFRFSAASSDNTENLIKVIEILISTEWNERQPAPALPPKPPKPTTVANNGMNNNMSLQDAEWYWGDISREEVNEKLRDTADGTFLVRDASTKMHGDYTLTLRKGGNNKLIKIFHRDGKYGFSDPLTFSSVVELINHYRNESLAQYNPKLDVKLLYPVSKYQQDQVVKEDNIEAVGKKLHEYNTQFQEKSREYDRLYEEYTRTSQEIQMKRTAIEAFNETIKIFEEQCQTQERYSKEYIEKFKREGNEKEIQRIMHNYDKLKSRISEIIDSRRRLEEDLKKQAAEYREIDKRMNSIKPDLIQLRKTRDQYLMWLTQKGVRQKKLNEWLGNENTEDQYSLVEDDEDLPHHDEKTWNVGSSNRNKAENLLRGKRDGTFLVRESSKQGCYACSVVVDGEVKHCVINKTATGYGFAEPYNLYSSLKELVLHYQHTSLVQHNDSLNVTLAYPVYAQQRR

Take `Cc1ccc(C(O)(C(N)=O)C(F)(F)F)cc1-c1cnc(N)c(C#CC2(C)CCOCC2)n1` (stereo not drawn) [Example 64, 2-(3-(5-amino-6-((4-methyltetrahydro-2H-pyran-4-yl)ethynyl)pyrazin-2-yl)-4-methylphenyl)-3,3,3-trifluoro-2-hydroxypropanamide]: the IC50 in assay [1] (Table A2) and in assay [2] (Table A2) was < 100 nM each time.

As to `Cc1ccc(C(O)(C(N)=O)C(F)(F)F)cc1-c1cnc(N)c(-n2cccn2)n1` (stereo not drawn) [Example 93, 2-(3-(5-Amino-6-(1H-pyrazol-1-yl)pyrazin-2-yl)-4-methylphenyl)-3,3,3-trifluoro-2-hydroxypropanamide], the IC50 in assay [1] (Table A3) and in assay [2] (Table A3) was < 100 nM each time.

With `CC(=O)N1CCN(c2nc(-c3cc(C(O)(C(N)=O)C(F)(F)F)ccc3C)cnc2N)CC1` (stereo not drawn) [Example 114, 2-(3-(6-(4-acetylpiperazin-1-yl)-5-aminopyrazin-2-yl)-4-methylphenyl)-3,3,3-trifluoro-2-hydroxypropanamide trifluoroacetate], the half-inhibitory concentration (IC50) in assay [1] (Table A4) and in assay [2] (Table A4) was < 100 nM in each case.

On to `COc1cnc(C#Cc2nc(-c3cc(C(O)(C(N)=O)C(F)(F)F)ccc3C)cnc2N)cn1` (stereo not drawn) [Example 67, 2-(3-(5-amino-6-((5-methoxypyrazin-2-yl)ethynyl)pyrazin-2-yl)-4-methylphenyl)-3,3,3-trifluoro-2-hydroxypropanamide], for which the half-maximal inhibitory concentration (IC50) in assay [1] (Table A2) and in assay [2] (Table A2) was < 100 nM in each case.

Turning to `Cc1ccc(C(O)(C(N)=O)C(F)(F)F)cc1-c1cnc(N)c(N2CCN(c3cncs3)CC2)n1` (stereo not drawn) [Example 120, 2-(3-(5-amino-6-(4-(thiazol-5-yl)piperazin-1-yl)pyrazin-2-yl)-4-methylphenyl)-3,3,3-trifluoro-2-hydroxypropanamide trifluoroacetate], the IC50 in assay [1] (Table A4) and in assay [2] (Table A4) was < 100 nM throughout.

`Cc1ccc(C(O)(C(N)=O)C(F)(F)F)cc1-c1cnc(N)c(C(=O)N[C@@H]2CCCOC2)n1` (stereo partly drawn) [Example 9, 3-amino-6-(5-(3-amino-1,1,1-trifluoro-2-hydroxy-3-oxopropan-2-yl)-2-methylphenyl)-N-((R)-tetrahydro-2H-pyran-3-yl)pyrazine-2-carboxamide trifluoroacetate]: the IC50 in assay [1] (Table A1) and in assay [2] (Table A1) was < 100 nM each time.

With `Cc1ccc(C(O)(C(N)=O)C(F)F)cc1-c1cnc(N)c(C(=O)NC2CCC(F)(F)CC2)n1` (stereo not drawn) [Example 34, 3-amino-6-(5-(1-amino-3,3-difluoro-2-hydroxy-1-oxopropan-2-yl)-2-methylphenyl)-N-(4,4-difluorocyclohexyl)pyrazine-2-carboxamide], the IC50 in assay [1] (Table A1) and in assay [2] (Table A1) was < 100 nM throughout.

As to `Cc1ccc(C(O)(C(N)=O)C(F)(F)F)cc1-c1cnc(N)c(C#CCC(C)O)n1` (stereo not drawn) [Example 51, 2-(3-(5-amino-6-(4-hydroxypent-1-ynyl)pyrazin-2-yl)-4-methylphenyl)-3,3,3-trifluoro-2-hydroxypropanamide], the IC50 in assay [1] (Table A2) and in assay [2] (Table A2) was < 100 nM throughout.

For `Cc1ccc(C(O)(C(N)=O)C(F)(F)F)cc1-c1cnc(N)c(C#Cc2cnccn2)n1` (stereo not drawn) [Example 57, 2-(3-(5-amino-6-(pyrazin-2-ylethynyl)pyrazin-2-yl)-4-methylphenyl)-3,3,3-trifluoro-2-hydroxypropanamide], the IC50 in assay [1] (Table A2) and in assay [2] (Table A2) was < 100 nM each time.

Take `Cc1ccc(C(O)(C(N)=O)C(F)(F)F)cc1-c1cnc(N)c(N2CCN(c3ccccc3)CC2)n1` (stereo not drawn) [Example 116, 2-(3-(5-amino-6-(4-phenylpiperazin-1-yl)pyrazin-2-yl)-4-methylphenyl)-3,3,3-trifluoro-2-hydroxypropanamide trifluoroacetate]: the IC50 in assay [1] (Table A4) is < 100 nM; in assay [2] (Table A4), 100 to 500 nM.

Regarding `Cc1ccc(C(O)(C(N)=O)C(F)(F)F)cc1-c1cnc(N)c(C#Cc2cccc(F)c2)n1` (stereo not drawn) [Example 61, 2-(3-(5-amino-6-((3-fluorophenyl)ethynyl)pyrazin-2-yl)-4-methylphenyl)-3,3,3-trifluoro-2-hydroxypropanamide], the IC50 in assay [1] (Table A2) and in assay [2] (Table A2) was < 100 nM in each case.

Regarding `Cc1ccc(C(O)(C(N)=O)C(F)(F)F)cc1-c1cnc(N)c(N2CCN3C(=O)CCC3C2)n1` (stereo not drawn) [Example 126, 2-(3-(5-amino-6-(6-oxohexahydropyrrolo[1,2-a]pyrazin-2(1H)-yl)pyrazin-2-yl)-4-methylphenyl)-3,3,3-trifluoro-2-hydroxypropanamide trifluoroacetate], the IC50 in assay [1] (Table A4) and in assay [2] (Table A4) was < 100 nM throughout.

Regarding `Cc1ccc(C(O)(C(N)=O)C(F)(F)F)cc1-c1cnc(N)c(C(=O)NC2CC3CCC2O3)n1` (single isomer, unassigned) [Example 30, 3-amino-6-(5-(3-amino-1,1,1-trifluoro-2-hydroxy-3-oxopropan-2-yl)-2-methylphenyl)-N-(7-oxabicyclo[2.2.1]heptan-2-yl)pyrazine-2-carboxamide], the IC50 in assay [1] (Table A1) and in assay [2] (Table A1) was < 100 nM throughout.

`Cc1ccc(C(O)(C(N)=O)C(F)F)cc1-c1cnc(N)c(-c2ccnn2C)n1` (stereo not drawn) [Example 98, 2-(3-(5-Amino-6-(1-methyl-1H-pyrazol-5-yl)pyrazin-2-yl)-4-methylphenyl)-3,3-difluoro-2-hydroxypropanamide]: the IC50 in assay [1] (Table A3) and in assay [2] (Table A3) was < 100 nM each time.

With `Cc1ccc(C)c(N2CCN(c3nc(-c4cc(C(O)(C(N)=O)C(F)(F)F)ccc4C)cnc3N)CC2)c1` (stereo not drawn) [Example 119, 2-(3-(5-amino-6-(4-(2,5-dimethylphenyl)piperazin-1-yl)pyrazin-2-yl)-4-methylphenyl)-3,3,3-trifluoro-2-hydroxypropanamide trifluoroacetate], the IC50 is < 100 nM in assay [1] (Table A4) and 100 to 500 nM in assay [2] (Table A4).

For the compound `Cc1ccc(C(O)(C(N)=O)C(F)(F)F)cc1-c1cnc(N)c(C(=O)NC2CCOCC2)n1` (stereo not drawn) [Example 2, 3-amino-6-(5-(3-amino-1,1,1-trifluoro-2-hydroxy-3-oxopropan-2-yl)-2-methylphenyl)-N-(tetrahydro-2H-pyran-4-yl)pyrazine-2-carboxamide trifluoroacetate], the IC50 in assay [1] (Table A1) and in assay [2] (Table A1) was < 100 nM in each case.

Take `Cc1ccc(C(O)(C(N)=O)C(F)F)cc1-c1cnc(N)c(C(=O)NC2CCOCC2)n1` (stereo not drawn) [Example 36, 3-amino-6-(5-(1-amino-3,3-difluoro-2-hydroxy-1-oxopropan-2-yl)-2-methylphenyl)-N-(tetrahydro-2H-pyran-4-yl)pyrazine-2-carboxamide]: the IC50 in assay [1] (Table A1) and in assay [2] (Table A1) was < 100 nM each time.

Turning to `Cc1ccc(C(O)(C(N)=O)C(F)(F)F)cc1-c1cnc(N)c(C#Cc2ccccn2)n1` (stereo not drawn) [Example 55, 2-(3-(5-amino-6-(pyridin-2-ylethynyl)pyrazin-2-yl)-4-methylphenyl)-3,3,3-trifluoro-2-hydroxypropanamide], the IC50 in assay [1] (Table A2) and in assay [2] (Table A2) was < 100 nM throughout.

Regarding `Cc1ccc(C(O)(C(N)=O)C(F)(F)F)cc1-c1cnc(N)c(C(=O)NC2CCC(F)(F)CC2)n1` (stereo not drawn) [Example 6, 3-amino-6-(5-(3-amino-1,1,1-trifluoro-2-hydroxy-3-oxopropan-2-yl)-2-methylphenyl)-N-(4,4-difluorocyclohexyl)pyrazine-2-carboxamide trifluoroacetate], the IC50 in assay [1] (Table A1) and in assay [2] (Table A1) was < 100 nM in each case.

Consider `Cc1ccc(C(O)(C(N)=O)C(F)(F)F)cc1-c1cnc(N)c(C#Cc2ccc(CC#N)cc2)n1` (stereo not drawn) [Example 59, 2-(3-(5-amino-6-((4-(cyanomethyl)phenyl)ethynyl)pyrazin-2-yl)-4-methylphenyl)-3,3,3-trifluoro-2-hydroxypropanamide], for which the IC50 in assay [1] (Table A2) and in assay [2] (Table A2) was < 100 nM throughout.

With `Cc1ccc(C(O)(C(=O)N(C)C)C(F)(F)F)cc1-c1cnc(N)c(-n2cncn2)n1` (stereo not drawn) [Example 95, 2-(3-(5-Amino-6-(1H-1,2,4-triazol-1-yl)pyrazin-2-yl)-4-methylphenyl)-3,3,3-trifluoro-2-hydroxy-N,N-dimethylpropanamide trifluoroacetate], the IC50 in assay [1] (Table A3) and in assay [2] (Table A3) was 100 to 500 nM throughout.

In the case of `Cc1ccc(C(O)(C(N)=O)C(F)(F)F)cc1-c1cnc(N)c(C(=O)N2CCc3cccnc32)n1` (stereo not drawn) [Example 28, 2-(3-(5-amino-6-(2,3-dihydro-1H-pyrrolo[2,3-b]pyridine-1-carbonyl)pyrazin-2-yl)-4-methylphenyl)-3,3,3-trifluoro-2-hydroxypropanamide], the IC50 was < 100 nM in assay [1] (Table A1) and 100 to 500 nM in assay [2] (Table A1).

For `Cc1ccc(C(O)(C(N)=O)C(F)(F)F)cc1-c1cnc(N)c(C#CC2CCOCC2)n1` (stereo not drawn) [Example 63, 2-(3-(5-amino-6-((tetrahydro-2H-pyran-4-yl)ethynyl)pyrazin-2-yl)-4-methylphenyl)-3,3,3-trifluoro-2-hydroxypropanamide], the IC50 in assay [1] (Table A2) and in assay [2] (Table A2) was < 100 nM each time.

With `Cc1ccc(C(O)(C(N)=O)C(F)(F)F)cc1-c1cnc(N)c(C(=O)NCCC#N)n1` (stereo not drawn) [Example 14, 3-amino-6-(5-(3-amino-1,1,1-trifluoro-2-hydroxy-3-oxopropan-2-yl)-2-methylphenyl)-N-(2-cyanoethyl)pyrazine-2-carboxamide trifluoroacetate], the IC50 in assay [1] (Table A1) and in assay [2] (Table A1) was < 100 nM each time.
